Measurements: patent publication US20210268056A1, “TAXODIONE FOR ITS USE FOR PROTECTING MUSCLE AND MEAT FROM OXIDATION” (CENTRE NATIONAL DE LA RECHERCHE SCIENTIFIQUE, priority 2018, published 2021)
“Also recorded” adds a separate entry of the source.

Legend:
[1] = DPPH free radical scavenging assay; type: biochemical
Method: Radical scavenging activity was evaluated using DPPH according to the method described by Morel et al. with some modifications (Morel, Landreau, Nguyen, Derbre, Grellier, Pape, et al., 2012). Tested extracts and standards were diluted in absolute ethanol at different concentrations. Ethanol was used as blank, and 10, 25, 50 and 75 μM Trolox were used as calibration solutions. Tested compounds or standard solutions (100 μL) were placed in 96-well plates in triplicate for each tested concentration. Absolute ethanol was added (75 μL). The reaction was initiated by adding 25 μL of freshly prepared DPPH solution (1 mM) to obtain a final volume of 200 μL/well. After 30 min in the dark at room temperature, absorbance was determined at 550 nm with a UVMAX Molecular Devices microtiter plate reader (MDS Inc., Toronto, Canada). Results were expressed as the effective concentration at which 50% of DPPH radicals were scavenged (EC50 in μg/mL). The results are the mean±standard deviation (SD) of three independent experiments (three wells per concentration for each experiment).

human myoblasts [2] = assay: H2O2-induced cell death in human myoblasts (Muse Count and Viability Kit); type: cell-based
Method: The quadriceps muscle biopsy was from one healthy adult (AFM-BTR “Banque de tissus pour la recherche”). Myoblasts were purified from the muscle biopsy and were cultured on collagen-coated dishes in DMEM/F12 medium with 10% foetal bovine serum (FBS), 0.1% Ultroser G and 1 ng/ml of human basic fibroblast growth factor (proliferation medium), as previously described (Kitzmann, Bonnieu, Duret, Vernus, Barro, Laoudj-Chenivesse, et al., 2006). For cell differentiation, confluent cells were cultured in DMEM with 4% FBS for 3-5 days (differentiation medium).
Myoblasts: Myoblasts were seeded in 35 mm collagen-coated dishes, cultured in proliferation medium, pre-incubated or not with the tested compounds for 24 h and then incubated or not with a lethal concentration of hydrogen peroxide (H2O2), a strong pro-oxidant/pro-apoptotic compound, for 24 h. […] Dead myoblasts were identified by staining with the Muse® Count and Viability Kit, and ROS was quantified with the Muse® Oxidative Stress Kit, followed by analysis with a Fluorescence Activated Cell Sorting (FACS) Muse apparatus (Millipore, France). […] As myotubes are too big for FACS analysis, H2O2 effect was determined by quantifying lactate dehydrogenase (LDH) activity, which is increased in the culture medium during tissue damage, using the LDH Cytotoxic Kit (ThermoFisher, France). […]

human myoblasts [3] = assay: ROS quantification in myoblasts (Muse Oxidative Stress Kit, FACS); type: cell-based
Method: (§1) Myoblasts: Myoblasts were seeded in 35 mm collagen-coated dishes, cultured in proliferation medium, pre-incubated or not with the tested compounds for 24 h and then incubated or not with a lethal concentration of hydrogen peroxide (H2O2), a strong pro-oxidant/pro-apoptotic compound, for 24 h. The optimal H2O2 concentration was the concentration required to kill between 30% and 50% of all cells and was established before each experiment. In general, myoblasts were incubated with 120 μM H2O2. Dead myoblasts were identified by staining with the Muse® Count and Viability Kit, and ROS was quantified with the Muse® Oxidative Stress Kit, followed by analysis with a Fluorescence Activated Cell Sorting (FACS) Muse apparatus (Millipore, France). Myotubes: Myoblasts were seeded in 35 mm collagen-coated dishes, cultured in proliferation medium until confluence, and then switched to differentiation medium for 4 days. At day 2, cells were incubated with TX for 24 h prior to incubation with H2O2 for 24 h. […] As myotubes are too big for FACS analysis, H2O2 effect was determined by quantifying lactate dehydrogenase (LDH) activity, which is increased in the culture medium during tissue damage, using the LDH Cytotoxic Kit (ThermoFisher, France). In parallel, myotube cultures were loaded with a ROS-fluorescent probe (CellRox) followed by fluorescence quantification using a TECAN spectrophotometer.

γH2AX = assay: Western blot of phosphorylated γH2AX in myoblasts; type: cell-based, human
Method: Myoblasts were seeded in 35 mm collagen-coated dishes, cultured in proliferation medium, pre-incubated or not with TX for 24 h and then incubated or not with 80 μM H2O2 for 24 h. Protein extracts were separated by SDS-PAGE gel electrophoresis and transferred to nitrocellulose membranes, blocked at room temperature with Odyssey blocking buffer (Eurobio, France) and probed with the rabbit polyclonal anti-Histone H1.4 (Sigma-Aldrich; 1/5000) and rabbit polyclonal anti-gamma H2AX (Cell signalling; 1/3000) antibodies followed by IRDye® 680RD and IRDye® 800RD secondary antibodies (Eurobio, France). Fluorescence was quantified with the Odyssey software. Data were normalized to […] expression.

CHOP gene = assay: RT-qPCR of CHOP gene expression in myoblasts; type: cell-based, human
Method: Myoblasts were seeded in 35 mm collagen-coated dishes, cultured in proliferation medium, pre-incubated or not with TX for 24 h, and then incubated or not with a sub-lethal concentration of H2O2 (80 μM; to avoid interference with dead cells) for 24 h. Then, total RNA was isolated from muscle cells using the NucleoSpin RNA II Kit (Macherey-Nagel, Hoerdt, France). The RNA concentration of each sample was measured with an Eppendorf BioPhotometer. cDNA was prepared using the Verso cDNA Synthesis Kit (Thermo Scientific, Ilkirch, France).
The expression of the CHOP (target) and RPLPO (control) genes was analysed by quantitative polymerase chain reaction (qPCR) on a LightCycler apparatus (Roche Diagnostics, Meylan, France), as previously described (El Haddad, Notarnicola, Evano, El Khatib, Blaquiere, Bonnieu, et al., 2017), using the following primers: […]

human myotubes [4] = assay: H2O2 toxicity in myotubes by lactate dehydrogenase (LDH) activity; type: cell-based; settings: TX 0.5 μg/mL 24 h, then H2O2 (550 μM) 24 h, FIG. 4D
Method: as §1

human myotubes [5] = assay: ROS in myotubes (CellRox probe, TECAN); type: cell-based; settings: TX 0.5 μg/mL 24 h, then H2O2 (550 μM) 24 h, FIG. 4E
[6] = system: Walker carcinosarcoma 256; settings: Kupchan 1968; cited from earlier work
HIV-1 protease = target: T1, HIV-1 protease (Human immunodeficiency virus type 1 group M subtype B, UniProt P04585); settings: Ahmed 1999; cited from earlier work
T1 construct: HIV-1 protease

termites = settings: Kusumoto 2009; cited from earlier work
fungi = settings: Kusumoto 2010; Machumi 2010; Bufalo 2016; cited from earlier work
protein phosphatase 2C = settings: Kusumoto 2014; cited from earlier work
Leishmania = settings: Naman 2016; Zhang 2012; Machumi 2010; Bufalo 2016; cited from earlier work
Plasmodium = settings: Zhang 2012; cited from earlier work
microbes = settings: Zhang 2012; Kuzma 2012; cited from earlier work
protozoa = settings: Mothana 2014; Kuzma 2017; cited from earlier work
bacteria = settings: Machumi 2010; Bufalo 2016; cited from earlier work
acetylcholinesterase = acetylcholinesterase (Homo sapiens, UniProt P22303); settings: Kuzma 2016; cited from earlier work
Sequence of acetylcholinesterase (P22303 32-614): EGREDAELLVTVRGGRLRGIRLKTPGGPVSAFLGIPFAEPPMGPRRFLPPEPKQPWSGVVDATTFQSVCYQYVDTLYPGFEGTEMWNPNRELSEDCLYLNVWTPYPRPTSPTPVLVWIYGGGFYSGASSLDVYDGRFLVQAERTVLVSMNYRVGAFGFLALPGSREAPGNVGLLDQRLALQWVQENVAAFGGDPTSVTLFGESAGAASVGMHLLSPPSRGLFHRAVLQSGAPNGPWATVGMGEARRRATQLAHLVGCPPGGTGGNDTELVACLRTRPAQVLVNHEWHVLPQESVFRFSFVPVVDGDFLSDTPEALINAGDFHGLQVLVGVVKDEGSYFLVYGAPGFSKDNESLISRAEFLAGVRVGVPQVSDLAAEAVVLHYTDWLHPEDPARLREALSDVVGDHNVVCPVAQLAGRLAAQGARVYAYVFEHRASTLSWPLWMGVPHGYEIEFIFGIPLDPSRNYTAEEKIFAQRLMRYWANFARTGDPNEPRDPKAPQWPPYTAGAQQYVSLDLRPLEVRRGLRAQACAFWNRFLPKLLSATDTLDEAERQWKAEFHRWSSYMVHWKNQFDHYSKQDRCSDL

[7] = Kolak 2009; cited from earlier work
[8] = system: MOLT-4, HT-29, and MCF-7 cells; settings: Mirzaei 2017; cited from earlier work
colon cancer cells = settings: isolated in mixture with [9]-shogaol from Rosmarinus officinalis leaves; Borras Linares 2015; cited from earlier work

## O=C(/C=C/c1ccc(O)c(O)c1)O[C@H](Cc1ccc(O)c(O)c1)C(=O)O [rosmarinic acid]
[1]
  DPPH free radical scavenging activity: strong antioxidant capacities

## CC(C)c1cc2c(c(O)c1O)[C@@]13CCCC(C)(C)[C@@H]1C[C@@H]2OC3=O [CO, carnosol]
[1]
  DPPH free radical scavenging activity: strong antioxidant capacities

## CC(C)C1=CC2=CC(=O)[C@H]3C(C)(C)CCC[C@]3(C)C2=C(O)C1=O [taxodione, (4bS,8aS)-4b,5,6,7,8,8a-hexahydro-4-hydroxy-2-isopropyl-4b,8,8-trimethylphenanthrene-3,9-dione]
Human myoblasts [2]; all tested concentrations, FIG. 3B
  antioxidant activity (H2O2-induced cell death) compared with CA and CO: significantly more efficient
Human myoblasts [3]; TX 0.5 μg/mL 24 h, then H2O2 24 h, FIG. 4A
  level of ROS after H2O2: reduced H2O2 effects
Human myoblasts [3]; without H2O2
  level of ROS, TX alone: did not have any effect
γH2AX; TX 0.5 μg/mL 24 h, then 80 μM H2O2 24 h, FIG. 4B
  level of γH2AX protein after H2O2: reduced H2O2 effects
γH2AX; without H2O2
  level of γH2AX protein, TX alone: did not have any effect
CHOP gene; TX 0.5 μg/mL 24 h, then 80 μM H2O2 24 h, FIG. 4C
  level of CHOP mRNA after H2O2: reduced H2O2 effects
CHOP gene; without H2O2
  level of CHOP mRNA, TX alone: did not have any effect
Human myotubes [4]
  LDH activity after H2O2: significantly reduced H2O2 effects
Human myotubes [5]
  ROS level (CellRox) after H2O2: significantly reduced H2O2 effects
[1]
  DPPH free radical scavenging activity: low
[6]
  inhibitory activity against Walker carcinosarcoma 256 in rats: inhibitory activity
HIV-1 protease
  HIV-1 protease inhibitory activity: low HIV-1 protease
termites
  Antitermitic activity (antifeedant effect): Antitermitic activity
fungi
  antifungal activity: Antifungal effects
Protein phosphatase 2C
  protein phosphatase 2C inhibitor: 2C inhibitor,
Leishmania
  anti-leishmanial activity: anti-leishmanial,; also recorded: anti-leishmanial
Plasmodium
  anti-plasmodial activity: anti-plasmodial
microbes
  antimicrobial activity: antimicrobial
protozoa
  antiprotozoal activity: weak antiprotozoal
bacteria
  antibacterial activity: antibacterial
acetylcholinesterase
  acetylcholinesterase inhibition: inhibition
[7]
  activity in O2 assay: not active in O2 assay
[8]
  anti-proliferative activity in MOLT-4, HT-29, and MCF-7 cells: anti-proliferative
Colon cancer cells
  anti-proliferative activity: anti-proliferative

## CC1(C)CC(O)CC(C)(C)N1[O] [Tempol, reference compound]
Human myoblasts [2]; pre-incubation 24 h prior to lethal H2O2 (120 μM), Tempol 50 μM, RW all tested concentrations, FIG. 1A
  protection against H2O2-induced cell death: protected human myoblasts efficiently

## CC(C)c1cc2c(c(O)c1O)[C@@]1(C(=O)O)CCCC(C)(C)[C@@H]1CC2 [CA, carnosic acid]
[1]
  DPPH free radical scavenging activity: strong antioxidant capacities
